The values that follow come from ChEMBL document CHEMBL5356994, “Synthesis, biological and molecular modelling for 1,3,4-thiadiazole sulfonyl thioureas: bacterial and fungal activity” (RSC Med Chem, 2023).

One assay deals with Carbonic anhydrase 2 (Homo sapiens, UniProt P00918). Put plainly: Inhibition of human carbonic anhydrase II esterase activity using p-nitrophenol acetate as substrate and measured for 3 mins by UV/visible spectrophotometric analysis.
Assay [1] has as its system Candida albicans. Put plainly: Antifungal activity against Candida albicans assessed as inhibition of fungal growth incubated for 20 hrs by macro-broth dilution method. It is filed as functional. A general note: Broth dilution looks for growth in wells or tubes with falling amounts of substance.
The subject of another assay is Staphylococcus aureus. The assay is described as follows: Antibacterial activity against Staphylococcus aureus assessed as inhibition of bacterial growth incubated for 16 to 18 hrs by serial dilution method. It is filed as functional. The following applies: time 16-18 hrs.
A further assay concerns Escherichia coli. The assay is described as follows: Antibacterial activity against Escherichia coli assessed as inhibition of bacterial growth incubated for 16 to 18 hrs by serial dilution method. It is filed as functional. Conditions: time 16-18 hrs.
The test system of assay [2] is Candida albicans. Put plainly: Antifungal activity against Candida albicans assessed as inhibition of fungal growth incubated for 16 to 18 hrs by serial dilution method. It is filed as functional. Conditions: time 16-18 hrs.
The subject of assay [3] is Aspergillus flavus. Put plainly: Antifungal activity against Aspergillus flavus assessed as inhibition of fungal growth incubated for 16 to 18 hrs by serial dilution method. The following applies: time 16-18 hrs. It is filed as functional.
The next assay relates to Aspergillus niger. The assay is described as follows: Antifungal activity against Aspergillus niger assessed as inhibition of fungal growth incubated for 72 hrs by agar dilution method. It is filed as functional.
Assay [4] concerns Aspergillus flavus. The assay is described as follows: Antifungal activity against Aspergillus flavus assessed as inhibition of fungal growth incubated for 72 hrs by agar dilution method. It is filed as functional. (In agar dilution the substance is mixed into plates at graded concentrations.)
Assay [5] deals with Candida albicans. The assay is described as follows: Antifungal activity against Candida albicans assessed as inhibition of fungal growth incubated for 72 hrs by agar dilution method. It is filed as functional.
The subject of a further assay is Saccharomyces cerevisiae. The assay is described as follows: Antifungal activity against Saccharomyces cerevisiae assessed as inhibition of fungal growth incubated for 72 hrs by agar dilution method. It is filed as functional.
In another assay the test system is Fusarium oxysporum. The assay is described as follows: Antifungal activity against Fusarium oxysporum assessed as inhibition of fungal growth incubated for 72 hrs by agar dilution method. It is filed as functional.

Molecules are shown by their SMILES. In brackets after ≈: the same amount, converted by molar mass.

`O=S(=O)(NC(=S)Nc1ccccc1)c1ccc(Cl)cc1`: the 50% inhibitory concentration (IC50) (commonly the concentration that inhibits the measured activity by half) at Carbonic anhydrase 2 worked out at 384 µM.

`O=S(=O)(NC(=S)Nc1ccccc1)c1ccccc1`: the 50% inhibitory concentration (IC50) against Carbonic anhydrase 2 stood at 422 µM.

Regarding `OC(Cn1cncn1)(Cn1cncn1)c1ccc(F)cc1F` [FLUCONAZOLE], the MIC (in general, the least concentration at which growth counts as inhibited) amounted to 0.05 µg/mL (≈ 0.163 µM) with Candida albicans [1]; 6.25 µg/mL (≈ 20.4 µM) with Staphylococcus aureus; 6.25 µg/mL (≈ 20.4 µM) with Escherichia coli; 6.25 µg/mL (≈ 20.4 µM) in the assay on Candida albicans [2]; 6.25 µg/mL (≈ 20.4 µM) with Aspergillus flavus [3]; 1.56 µg/mL (≈ 5.09 µM) in the assay with Aspergillus niger. The minimal inhibitory concentration (MIC) in the assay with Aspergillus flavus [4], with Candida albicans [5], in the assay with Saccharomyces cerevisiae and with Fusarium oxysporum was 0.78 µg/mL (≈ 2.55 µM) in each case.
